Test results reported in publication PMC8654847, “Design of a methotrexate-controlled chemical dimerization system and its use in bio-electronic devices” (Nature Communications, 2021).

Molecular target: T1, anti-MTX VHH
T1 construct: nanoCLAMP8-VHH fusion for the crystal structure 7RG7
Assay: microscale thermophoresis (EGFP-VHH titrated with MTX); […] Å crystal structure of the ternary complex with nanoCLAMP8
Format: binding

CN(Cc1cnc2nc(N)nc(N)c2n1)c1ccc(C(=O)N[C@@H](CCC(=O)O)C(=O)O)cc1 [MTX, methotrexate]
Kd: 4.3 ± 0.25 nM
